For one compound, Ki results are on record in paper PMC10411625, “Rationally designed stapled peptides allosterically inhibit PTBP1–RNA-binding” (Chemical Science, 2023).

One experiment deals with T1, PTBP1 RRM1 (Homo sapiens, UniProt P26599).
T1 construct: (G41-A163); His tag; made in house; host or cells: E. coli BL21 DE3 RIL
T1 sequence (P26599 41-163): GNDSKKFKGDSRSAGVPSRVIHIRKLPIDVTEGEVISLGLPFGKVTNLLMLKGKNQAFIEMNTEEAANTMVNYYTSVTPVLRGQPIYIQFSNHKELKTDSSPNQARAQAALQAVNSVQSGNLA
Put plainly: Competitive fluorescence polarization assay, RRM1 and RNA-2. The settings on record: Fig. 3C; competitive FP with RNA-2; read-out: P-6 Ki, construct RRM1. It is filed as binding. The source says:
Different PTBP1 variants were used to investigate the mode of action of P-6via competitive FP experiments. As illustrated in Fig. 1A there is a short linker between RRM1 and the α3-helix which also makes contacts with the RNA. It is possible that when P-6 occupies the binding site of the helix, this linker is displaced disrupting its interactions with the RNA and lowering the RNA-binding affinity. To test this, we measured whether P-6 could inhibit RRM1 RNA-binding. […] Therefore, it seems most likely that P-6 inhibits RRM12 via disturbing the coordinated RNA-binding of the two RRM domains. As this is possibly regulated by the helix we tested if the peptide could inhibit RRM12–L151G where the role of the helix is reduced (Fig. 3C and S5 ^†). […] These findings further support a mode of action where P-6 disturbs coordinated RNA-binding by RRM1 and 2. […]
size exclusion chromatography (Superdex 75 16/60 or 26/60) with SEC buffer (50 mM Tris, 200 mM NaCl). Protein homogeneity was assessed by the size exclusion chromatogram and purity was checked by SDS-PAGE analysis to be >= 90%.
The gene encoding for SRSF1-RRM12 (1-195) was subcloned into pOPIN-His expression vector and expressed in E. coli BL21 (DE3). […]
Fluorescence polarization assay with PTBP1 […]
(In general: In fluorescence polarisation assays a small probe gives low polarisation when free and higher when bound to something large.)

Another experiment concerns the target T2, SRSF1 (Homo sapiens, UniProt Q07955).
T2 construct: SRSF1-RRM12 (1-195); His tag (cleaved yes); made in house; host or cells: E. coli BL21 (DE3)
Put plainly: Competitive fluorescence polarization assay, SRSF1 and RNA-S. The class given is binding. The note with it: Fig. 3C; competitive FP, 400 nM SRSF1, 1 nM Cy5-labeled RNA-S, pH 7.0; read-out: P-6 Ki, construct SRSF1. The source says: The RRM domain is the most commonly occurring RNA-binding domain in the proteome making it challenging to find selective inhibitors.[23,46] Although various ligands have been described, their selectivity is rarely investigated, with an exception for the Musashi-1 inhibitor Ro 08-2750.[47–58] To investigate whether P-6 has an effect on the RNA-binding of other dual RRM containing proteins, we evaluated its inhibitory potency against another hnRNP protein (hnRNP A2/B1) as well as a splicing factor from the SR-protein class (SRSF1).[1] We evaluated P-6 in competitive fluorescence polarization assays using previously described RNAs recognized by these proteins.[59] […]
performed in FP bufferPTBP1. […]
serially diluted in the same buffer. […]
a final concentration of 10 nM probe. […]
the settings mentioned previously.
Fluorescence polarization assay with SRSF1
Fluorescence polarization was
Fluorescence polarization assay with hnRNPA2/B1
For the competitive assay 10 nM
Microscale thermophoresis […]
afterwards serially diluted into FP buffer.
The data was evaluated at […]
experiments were performed in duplicates.
Circular Dichroism Spectroscopy […]
secondary structure analysis with a reference data set. For experiments with PTBP1 constructs the […]

T2 sequence (Q07955 1-195, species assumed): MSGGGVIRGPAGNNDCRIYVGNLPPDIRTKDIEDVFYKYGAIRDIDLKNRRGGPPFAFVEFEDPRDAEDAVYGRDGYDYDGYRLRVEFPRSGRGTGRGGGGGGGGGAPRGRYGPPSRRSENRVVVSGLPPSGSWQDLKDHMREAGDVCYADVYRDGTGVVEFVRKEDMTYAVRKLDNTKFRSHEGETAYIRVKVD

As to `CC(=O)N[C@@H](CC(N)=O)C(=O)N[C@@H](CCC(N)=O)C(=O)N[C@@]1(C)CCCC=CCCCC2(CCCC=CCCC[C@](C)(C(=O)N[C@H](C(=O)N[C@@H](CC(N)=O)C(N)=O)C(C)C)NC(=O)[C@H](CCC(N)=O)NC(=O)[C@H](CC(C)C)NC(=O)[C@H](C)NC2=O)NC(=O)[C@H](CCC(N)=O)NC(=O)[C@H](C)NC(=O)[C@H](CCCNC(=N)N)NC1=O` (some centres unmarked) [Peptide P-6], the Ki (commonly a measure of affinity in units of concentration, obtained from inhibition or displacement) at PTBP1 RRM1 is over 750 µM; on SRSF1, over 1000 µM.
